Test results taken from ChEMBL document CHEMBL4041522, “Comprehensive review on various strategies for antimalarial drug discovery” (2017).

Legend:
Format in all cases: functional
Plasmodium [1] = assay: In vivo antiparasitic activity against Plasmodium sp. assessed as parasite clearance time
[2] = In vivo antiparasitic activity against Toxoplasma sp. assessed as parasite clearance time
[3] = In vivo antiparasitic activity against Babesia sp. assessed as parasite clearance time
[4] = In vivo antiparasitic activity against Pneumocystis sp. assessed as parasite clearance time
Plasmodium [5] = assay: In vivo antiparasitic activity against Plasmodium sp. assessed as fever clearance time
[6] = In vivo antiparasitic activity against Toxoplasma sp. assessed as fever clearance time
[7] = In vivo antiparasitic activity against Babesia sp. assessed as fever clearance time
[8] = In vivo antiparasitic activity against Pneumocystis sp. assessed as fever clearance time

Measured: Time

CCC[C@@H]1C[C@@H](C(=O)N[C@@H]([C@H]2O[C@H](SC)[C@H](O)[C@@H](O)[C@H]2O)[C@H](C)Cl)N(C)C1 [CLINDAMYCIN]
4 to 6 days: Plasmodium [1] | [2] | [3] | [4]
3 to 5 days: all other assays above
